According to paper PMC7263517 (bioRxiv, 2020):
Where two headings read alike, the source gives them in different places.

Assays:
[1] = target: FluPol (Influenza A virus, UniProt P03430); format: biochemical, influenza A/WSN/33 (H1N1) virus
[2] = target: SARS-CoV-2 nsp7/8/12 complex (Severe acute respiratory syndrome coronavirus 2, UniProt P0DTD1); experiment: SARS-CoV-2 nsp7/8/12 in vitro activity assay; format: biochemical
[3] = target: A/WSN/33 (H1N1) influenza virus FluPol (Influenza A virus, UniProt P03430); experiment: biochemical; format: biochemical, influenza A/WSN/33 (H1N1) virus
[4] = tested on: influenza virus; conditions: read-out: EC90 influenza virus growth in cell culture; cited from earlier work

A/WSN/33 (H1N1) influenza virus FluPol, sequence (P03430 whole entry, looked up): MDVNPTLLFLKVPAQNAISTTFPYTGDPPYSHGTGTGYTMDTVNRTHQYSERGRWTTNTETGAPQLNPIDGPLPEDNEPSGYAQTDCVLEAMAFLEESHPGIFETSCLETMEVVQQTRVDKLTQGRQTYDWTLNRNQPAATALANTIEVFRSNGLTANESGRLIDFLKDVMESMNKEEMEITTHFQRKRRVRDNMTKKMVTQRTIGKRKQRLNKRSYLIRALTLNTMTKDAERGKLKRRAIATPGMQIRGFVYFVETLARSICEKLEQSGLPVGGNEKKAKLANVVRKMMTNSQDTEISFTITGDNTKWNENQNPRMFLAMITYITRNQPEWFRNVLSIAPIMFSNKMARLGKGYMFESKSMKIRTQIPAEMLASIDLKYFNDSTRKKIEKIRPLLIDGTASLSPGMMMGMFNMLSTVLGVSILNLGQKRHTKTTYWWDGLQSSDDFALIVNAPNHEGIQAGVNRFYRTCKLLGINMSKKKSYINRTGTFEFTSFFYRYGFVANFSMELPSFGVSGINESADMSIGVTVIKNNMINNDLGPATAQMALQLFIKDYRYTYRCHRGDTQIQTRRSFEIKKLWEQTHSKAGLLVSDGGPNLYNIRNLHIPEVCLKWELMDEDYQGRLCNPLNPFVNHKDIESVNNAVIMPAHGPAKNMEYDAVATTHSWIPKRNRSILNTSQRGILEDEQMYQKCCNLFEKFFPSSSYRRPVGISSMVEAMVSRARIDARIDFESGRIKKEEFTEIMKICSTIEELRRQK
FluPol, sequence (P03430 whole entry, looked up): as above

Row | SMILES | FOLD CHANGE IC50 [3] | IC50 [3] [mM] | IC50 ([3]; read-out: FLUPOL IC50) [mM] | other results
1 | C[n+]1ccc(C(=O)NCc2ccccc2)cc1 [FAV00A, N-methyl-4-benzylcarbamidopyridinium iodide, reference compound] | 1 | 46.3 |  | inhibition of FluPol activity by cellular extract [1]: strong, concentration-dependent inhibition; IC50 [2]: 40.7 mM
2 | NC(=O)c1nc(F)cn([C@@H]2O[C@H](COP(=O)(O)OP(=O)(O)OP(=O)(O)O)[C@@H](O)[C@H]2O)c1=O [T-705 triphosphate, 6-fluoro-3,4-dihydro-4-[5-O-(hydroxy{[hydroxy(phosphonooxy)phosphinyl]oxy}phosphinyl)-β-d-ribofuranosyl]-3-oxo-2-pyrazinecarboxamide, reference compound] |  | 0.011 |  | IC50 SARS-CoV-2 nsp7/8/12 RNA synthesis activity ([2]; in vitro, 30 mins, VR17-04 value estimated from the dose-response curve): non-inhibitory
3 | C[n+]1ccc(C(=O)NCc2ccccc2O)cc1 [VR16-01, 4-{[(2-hydroxyphenyl)methyl]carbamoyl}-1-methylpyridin-1-ium] | 0.6 |  | 78.2 | 
4 | O=C(NCc1ccccc1O)c1ccncc1 [VR18-01, N-[(2-hydrophenyl)methyl]pyridine-4-carboxamide] | 1.4 |  | 34.2 | 
5 | O=C(NCc1cccc(O)c1)c1ccncc1 [VR18-02, N-[(3-hydrophenyl)methyl]pyridine-4-carboxamide] | 0.5 |  | 94.8 | 
6 | O=C(NCc1ccc(O)cc1)c1ccncc1 [VR18-03, N-[(4-hydrophenyl)methyl]pyridine-4-carboxamide] | 0.6 |  | 74 | 
7 | O=C(NCc1ccccc1)c1cc[nH]c(=O)c1 [VR18-04, N-benzyl-2-oxo-1,2-dihydropyridine-4-carboxamide] | 1.3 | 35.2 |  | 
8 | C[n+]1ccc(C(=O)NCc2ccccc2)cc1 [enisamium, 4-(benzylcarbamoyl)-1-methylpyridinium] |  |  |  | EC90 [4]: 0.157 to 0.439 mM
